Values after ≈ are worked out from the molar mass of the structure shown. Read-outs that look alike come from different tables or passages of the source.
How the values were obtained:
Caco-2 cells = experiment: Cellular permeability assay utilizing Caco2 cell line; conditions: 10 µM, 120 min; for Caco‐2 permeability Papp +Elacridar / Caco‐2 permeability recovery +Elacridar: A2B in the presence of elacridar
HepG2 cells = experiment: Cytotoxicity on HepG2 cells (CellTiterGlo); format: cell-based; conditions: 40 h
Description: (§1) Cytotoxicity on THP1 and HepG2 cells
(§2) After 4 hours of HepG2 cell line (provided by ATCC) plating at 2.500 cells /well in 384-w plates, compounds were added to the cells. After an incubation at 37 °C for 40 h, the CellTiterGlo assay (provided by Promega) was performed.
(§3) Luminescence measurement is related to the cell viability. Compound activity is determined by using the control wells with no treatment as control (100% of growth). The assay was performed identically with THP1 cells. All incubations were […]

C. albicans FH2173 = experiment: Micro-broth dilution growth inhibition, C. albicans (ATP quantification); format: cell-based
[1] = system: M. catarrhalis ATCC25238I; experiment: Micro-broth dilution growth inhibition, M. catarrhalis; format: cell-based
[2] = Microsomal stability, human; format: in vitro ADME; conditions: 1 µM compound; for Microsomal stability CLint, Human / Microsomal stability t1/2, Human: human liver microsomes 0.5 mg/mL; for microsomal CLint at 1 µM / half-life at 1 µM: human, pooled liver microsomes, pH 7.4, human liver microsomes 0.5 mg/mL; for half-life at 1 µM: read-out: Microsomal stability t1/2, Human
Description: (§4) 2.4. Assay descriptions for the profiling of all four stereoisomers of (+)-floyocidin B and (−)-avicennone C,1 the avicennone C-floyocidin B hybrids 35, ent-35, 36 and ent-36 as well as the natural product (+)-floyocidin A. […]
(§5) Pooled liver microsomes are purchased. Microsomes are stored at –80 °C prior to use. Microsomes (final protein concentration 0.5 mg/mL), 0.1 M phosphate buffer pH 7.4, and test compound (final substrate concentration 1 µM; final DMSO concentration 0.25%) are preincubated at 37 °C prior to the addition of NADPH (final concentration 1 mM) to initiate the reaction. A minus cofactor control i ncubation is included for each compound tested where 0.1 M phosphate buffer pH 7.4 is added instead of NADPH. Two control compounds are included. All incubations are performed singularly for each test compound. Each compound is incubate d for 0, 5, 15, 30, and 45 min. The control is incubated for 45 min only. The reactions are stopped by transferring incubate into acetonitrile at the appropriat e time points, in a 1:3 ratio. The termination plates are centrifuged at 3,000 rpm for 20 min at 4 °C to precipitate the protein.
(§6) From a plot of ln peak area ratio (compound peak area/internal standard peak area) against time, the gradient of the line is determined. Subsequently, half -life and intrinsic clearance are calculated using the equations below:
(§7) Elimination rate constant (k) = (- gradient)
(§8) Intrinsic clearance (CL )(µL/min/mg protein) = V x 0.693 […]
(§9) where V = Incubation volume (µL)/Microsomal protein (mg)
(§10) Relevant control compounds are assessed, ensuring intrinsic clearance values fall within the specified limits (if available). […]

physchem = format: physicochemical; conditions: for chromatographic logD: pH 7.4, Log D pH 7.4
Description: 2.4. Assay descriptions for the profiling of all four stereoisomers of (+)-floyocidin B and (−)-avicennone C,1 the avicennone C-floyocidin B hybrids 35, ent-35, 36 and ent-36 as well as the natural product (+)-floyocidin A.
Determination of logD 7.4
LogD values at pH 7.4 were determined by a standardized HPLC method derived from by Genieser et al.8 The calculation of the logD value for measured compounds is performed by comparison of the retention times with standard compounds of known distribution coefficients between 1 -octanol and water at pH 7.4. […]
8 Krass, J. D., Jastorff, B., and Genieser, H.-G. Anal. Chem. 1997, 69, 2575–2581. […]

THP1 cells = experiment: Cytotoxicity on THP1 cells (CellTiterGlo); format: cell-based; conditions: THP1 cells; 40 h
Description: as §1, §2, §3

S. aureus ATCC25923 = experiment: Micro-broth dilution growth inhibition, S. aureus; format: cell-based; conditions: Staphylococcus aureus, 18 h
E. coli ATCC25922 = experiment: Micro-broth dilution growth inhibition, E. coli (CAMH); format: cell-based; conditions: Escherichia coli, 18 h
E. coli ATCC25922 MHC = experiment: Micro-broth dilution growth inhibition, E. coli in CAMH with 44 mM sodium bicarbonate (MHC); format: cell-based; conditions: E. coli ATCC25922 MHC (CAMH + 44 mM sodium bicarbonate)
P. aeruginosa ATCC27853 = experiment: Micro-broth dilution growth inhibition, P. aeruginosa; format: cell-based; conditions: Pseudomonas aeruginosa, 18 h
[3] = Cellular permeability assay utilizing Caco2 cell line; conditions: human; for Papp at 120 min, 10 µM: Caco-2, Caco‐2 permeability Papp +Elacridar, A2B in the presence of elacridar; for Papp A→B at 120 min, 10 µM: Caco-2, Caco‐2 permeability Papp A2B, A2B
[4] = Microsomal stability, mouse; format: in vitro ADME; conditions: for Microsomal stability CLint, Mouse / Microsomal stability t1/2, Mouse: mouse liver microsomes 0.5 mg/mL
Description: as §4, §5, §6, §7, §8, §9, §10

M. tuberculosis H37Rv = experiment: Growth inhibition, M. tuberculosis H37Rv (Middlebrook 7H9, CellTiter-Blue); format: cell-based; conditions: M. tuberculosis H37Rv (Mtb); 6 days
[5] = Candida albicans, FH2173, 48 h, read-out: MIC
[6] = Escherichia coli, ATCC25922, 18 h, read-out: MIC
[7] = Moraxella catarrhalis, ATCC25238I, read-out: MIC

Row | Structure (SMILES) | Caco‐2 permeability Papp +Elacridar (Caco-2 cells) | Caco‐2 permeability recovery +Elacridar (Caco-2 cells) | Caco‐2 permeability Papp A2B (Caco-2 cells) | Caco‐2 permeability recovery A2B (Caco-2 cells) | Cytotoxicity TC50 HepG2 (HepG2 cells) | MIC (C. albicans FH2173; 48 h) | MIC [1] | Microsomal stability CLint, Human [2] | Microsomal stability t1/2, Human [2] | Log D pH 7.4 (physchem) | Cytotoxicity TC50 THP1 (THP1 cells) | MIC (S. aureus ATCC25923) | MIC (C. albicans FH2173; [5]) | MIC (E. coli ATCC25922) | MIC (E. coli ATCC25922 MHC; [6]) | chromatographic logD (physchem) | MIC (P. aeruginosa ATCC27853) | Papp at 120 min, 10 µM [3] | Microsomal stability CLint, Mouse ([4]; 1 µM compound) | Microsomal stability t1/2, Mouse ([4]; 1 µM compound) | other results
1 | CC(C)=CCC12OC1C(O)c1ccccc1C2=O (stereo not drawn) [compound 2, (−)‐avicennone C, reference compound] | 393 10^−7 cm s^−1 | 83.4% | 407 10^−7 cm s^−1 | 86.7% | >30 µM | 128 µg/mL (≈ 524 µM) | 64 µg/mL (≈ 262 µM) | 150 μL/min/mg protein | 9.26 min | 2.86 | 30 µM | – | – | – | – | – | – | – | – | – | –
2 | CCC/C=C/C=C/C1=C(CO)[C@@H](O)[C@H]2O[C@@]2(CC=C(C)C)C1=O [compound 3, (1R,5R,6R)‐3‐((1E,3E)‐Hepta‐1,3‐dien‐1‐yl)‐5‐hydroxy‐4‐(hydroxymethyl)‐1‐(3‐methylbut‐2‐en‐1‐yl)‐7‐oxabicyclo[4.1.0]hept‐3‐en‐2‐one] | – | – | – | – | – | – | – | – | – | – | – | 64 µg/mL (≈ 201 µM) | > 128 µg/mL | > 128 µg/mL | > 128 µg/mL | 4.11 | > 128 µg/mL | – | – | – | –
3 | CCC/C=C/c1cc2c(cn1)[C@H](O)[C@H]1O[C@@]1(CC=C(C)C)C2=O [compound 27, (1aR,2S,7aR)‐2‐Hydroxy‐7 a‐(3‐methylbut‐2‐en‐1‐yl)‐5‐((E)‐pent‐1‐en‐1‐yl)‐1 a,7 a‐dihydrooxireno[2,3‐g]isoquinolin‐7(2H)‐one] | – | 38.5% | – | 42.1% | 10.7 µM | – | – | – | – | – | 10.6 µM | > 128 µg/mL | > 128 µg/mL | > 128 µg/mL | > 128 µg/mL | 4.14 | > 128 µg/mL | 8.77 ×10⁻⁶ cm/s | – | – | Papp A→B at 120 min, 10 µM [3]: 11.7 ×10⁻⁶ cm/s; microsomal CLint at 1 µM ([4]; mouse, pooled liver microsomes, pH 7.4, mouse liver microsomes 0.5 mg/mL, 1 µM compound, read-out: Microsomal stability CLint, Mouse): 1500 µL/min/mg; half-life at 1 µM ([4]; mouse, pooled liver microsomes, pH 7.4, mouse liver microsomes 0.5 mg/mL, 1 µM compound, read-out: Microsomal stability t1/2, Mouse): 0.924 min; microsomal CLint at 1 µM [2]: 95.8 µL/min/mg; half-life at 1 µM [2]: 14.5 min
4 | CC(C)=CCC12OC1C(O)c1ccccc1C2=O (stereo not shown) [compound 37] | – | 80.9% | – | 74.8% | 30 µM | 128 µg/mL (≈ 524 µM) | 128 µg/mL (≈ 524 µM) | 54.6 μL/min/mg protein | 25.4 min | – | 27.2 µM | – | – | – | – | 2.82 | – | 27.9 ×10⁻⁶ cm/s | – | – | Papp A→B at 120 min, 10 µM [3]: 32.6 ×10⁻⁶ cm/s; microsomal CLint at 1 µM ([4]; mouse, microsomes, pH 7.4, Microsomal stability CLint): > 1500 µL/min/mg
5 | CC(C)=CCC12OC1C(O)c1ccccc1C2=O (stereo not shown) [compound 38] | 331 10^−7 cm s^−1 | 132% | 620 10^−7 cm s^−1 | 127% | 9.49 µM | – | – | 76.0 μL/min/mg protein | 18.2 min | 2.84 | 30 µM | > 128 µg/mL | > 128 µg/mL | > 128 µg/mL | > 128 µg/mL | – | > 128 µg/mL | – | 1070 μL/min/mg protein | 1.29 min | MIC [1, 7]: 128 µg/mL (≈ 524 µM)
6 | CCCC=Cc1cc2c(cn1)C(O)C1OC1(CC=C(C)C)C2=O (stereo not drawn) [ent‐4] | – | 28.7% | – | 23.4% | 5.97 µM | – | – | – | – | – | 8.78 µM | > 128 µg/mL | > 128 µg/mL | > 128 µg/mL | > 128 µg/mL | 3.97 | > 128 µg/mL | 4.67 ×10⁻⁶ cm/s | 271 μL/min/mg protein | 5.12 min | Papp A→B at 120 min, 10 µM [3]: 7.35 ×10⁻⁶ cm/s; Caco‐2 permeability recovery +Elacridar (Caco-2 cells; listed as ent-4): 28.7%; Caco‐2 permeability recovery A2B (Caco-2 cells; listed as ent-4): 23.4%; MIC [1, 7]: 16 µg/mL (≈ 51.1 µM); microsomal CLint at 1 µM [2]: 26.9 µL/min/mg; half-life at 1 µM [2]: 51.6 min
7 | CCCC=Cc1cc2c(cn1)C(O)C1OC1(CC=C(C)C)C2=O (stereo not drawn) [ent‐27] | 64.4 10^−7 cm s^−1 | 15.3% | 40.5 10^−7 cm s^−1 | 8.69% | 10.4 µM | – | 8 µg/mL (≈ 25.5 µM) | 44.3 μL/min/mg protein | 31.3 min | 4.16 | 11.5 µM | – | – | – | – | – | – | – | 764 μL/min/mg protein | 1.81 min | Caco‐2 permeability recovery +Elacridar (Caco-2 cells; listed as ent-27): 15.3%; Caco‐2 permeability recovery A2B (Caco-2 cells; listed as ent-27): 8.69%
8 | CCCC=Cc1ccc2c(c1)C(=O)C1(CC=C(C)C)OC1C2O (stereo not drawn) [ent‐36] | 12.4 10^−7 cm s^−1 | 12.0% | 8.55 10^−7 cm s^−1 | 14.3% | 11.3 µM | – | – | 29.9 μL/min/mg protein | 46.3 min | 4.74 | 18.2 µM | – | – | – | – | – | – | – | 721 μL/min/mg protein | 1.92 min | Caco‐2 permeability recovery +Elacridar (Caco-2 cells; listed as ent-36): 12.0%; Caco‐2 permeability recovery A2B (Caco-2 cells; listed as ent-36): 14.3%; MIC (M. tuberculosis H37Rv): 9.4 µg/mL (≈ 30.1 µM)
9 | CC(C)=CCC12OC1C(O)c1ccccc1C2=O (stereo not drawn) [ent‐37] | 300 10^−7 cm s^−1 | 74.6% | 360 10^−7 cm s^−1 | 81.3% | 30 µM | 128 µg/mL (≈ 524 µM) | – | 73.5 μL/min/mg protein | 18.9 min | 2.82 | 25.2 µM | – | – | – | – | – | – | – | 370 μL/min/mg protein | 3.75 min | Caco‐2 permeability recovery +Elacridar (Caco-2 cells; listed as ent-37): 74.6%; Caco‐2 permeability recovery A2B (Caco-2 cells; listed as ent-37): 81.3%; MIC (E. coli ATCC25922 MHC; 18 h): 128 µg/mL
